Legend:
Assay in all cases: relative viability (nuclei count vs DMSO), 5 days (fraction); higher = more cells survive
ABC-1 = tested on: ABC-1
Outline: (§1)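 Lung cancer cell lines in 1536-well plates were dosed by pin tool the day after seeding, either with one drug alone or with a fixed anchor-drug dose plus five library-drug doses (not always all listed) in √10 steps. After 5 days, cells were fixed and their nuclei stained in one step (final 0.05% Triton X-100, 1% formaldehyde, 1 ug/ml Hoechst), then counted on 4× images. Relative viability is the nuclei count in treated wells divided by that in vehicle wells. Values are medians of duplicate plates.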

COR-L23 = tested on: COR-L23
Outline: as §1

EPLC-272H = tested on: EPLC-272H
Outline: as §1

HARA = tested on: HARA
Outline: as §1

HCC-15 = tested on: HCC-15
Outline: as §1

HCC-78 = tested on: HCC-78
Outline: as §1

LC-2-ad = tested on: LC-2-ad
Outline: as §1

LU99A = tested on: LU99A
Outline: as §1

NCI-H1355 = tested on: NCI-H1355
Outline: as §1

NCI-H1651 = tested on: NCI-H1651
Outline: as §1

NCI-H1915 = tested on: NCI-H1915
Outline: as §1

NCI-H1993 = tested on: NCI-H1993
Outline: as §1

NCI-H2023 = tested on: NCI-H2023
Outline: as §1

NCI-H2085 = tested on: NCI-H2085
Outline: as §1

NCI-H2126 = tested on: NCI-H2126
Outline: as §1

NCI-H2342 = tested on: NCI-H2342
Outline: as §1

NCI-H2347 = tested on: NCI-H2347
Outline: as §1

NCI-H358 = tested on: NCI-H358
Outline: as §1

NCI-H650 = tested on: NCI-H650
Outline: as §1

NCI-H838 = tested on: NCI-H838
Outline: as §1

PC-14 = tested on: PC-14
Outline: as §1

SW 1573 = tested on: SW 1573
Outline: as §1

UMC-11 = tested on: UMC-11
Outline: as §1

Compound: CC1(C)CCC(c2ccc(Cl)cc2)=C(CN2CCN(c3ccc(C(=O)NS(=O)(=O)c4ccc(N[C@H](CCN5CCOCC5)CSc5ccccc5)c(S(=O)(=O)C(F)(F)F)c4)cc3)CC2)C1 [Navitoclax] + Cc1nc(Nc2ncc(C(=O)Nc3c(C)cccc3Cl)s2)cc(N2CCN(CCO)CC2)n1 [Dasatinib] (partner 0.075 µM)
- relative viability (ABC-1; first compound 0.005 µM): 0.588
- relative viability (ABC-1; first compound 0.01581 µM): 0.644
- relative viability (ABC-1; first compound 0.05 µM): 0.49
- relative viability (ABC-1; first compound 0.1581 µM): 0.555
- relative viability (ABC-1; first compound 0.5 µM): 0.61
- relative viability (COR-L23; first compound 0.005 µM): 0.509
- relative viability (COR-L23; first compound 0.01581 µM): 0.595
- relative viability (COR-L23; first compound 0.05 µM): 0.521
- relative viability (COR-L23; first compound 0.1581 µM): 0.447
- relative viability (COR-L23; first compound 0.5 µM): 0.556
- relative viability (EPLC-272H; first compound 0.005 µM): 0.372
- relative viability (EPLC-272H; first compound 0.05 µM): 0.359
- relative viability (EPLC-272H; first compound 0.1581 µM): 0.361
- relative viability (EPLC-272H; first compound 0.5 µM): 0.345
- relative viability (HARA; first compound 0.005 µM): 0.308
- relative viability (HARA; first compound 0.01581 µM): 0.277
- relative viability (HARA; first compound 0.1581 µM): 0.29
- relative viability (HARA; first compound 0.5 µM): 0.242
- relative viability (HCC-15; first compound 0.005 µM): 0.619
- relative viability (HCC-15; first compound 0.01581 µM): 0.643
- relative viability (HCC-15; first compound 0.05 µM): 0.577
- relative viability (HCC-15; first compound 0.1581 µM): 0.572
- relative viability (HCC-15; first compound 0.5 µM): 0.392
- relative viability (HCC-78; first compound 0.005 µM): 0.405
- relative viability (HCC-78; first compound 0.01581 µM): 0.351
- relative viability (HCC-78; first compound 0.1581 µM): 0.403
- relative viability (HCC-78; first compound 0.5 µM): 0.381
- relative viability (LC-2-ad; first compound 0.005 µM): 0.442
- relative viability (LC-2-ad; first compound 0.01581 µM): 0.812
- relative viability (LC-2-ad; first compound 0.05 µM): 0.691
- relative viability (LC-2-ad; first compound 0.1581 µM): 0.406
- relative viability (LC-2-ad; first compound 0.5 µM): 0.342
- relative viability (LU99A; first compound 0.005 µM): 0.542
- relative viability (LU99A; first compound 0.01581 µM): 0.879
- relative viability (LU99A; first compound 0.05 µM): 0.418
- relative viability (LU99A; first compound 0.1581 µM): 0.618
- relative viability (LU99A; first compound 0.5 µM): 0.821
- relative viability (NCI-H1355; first compound 0.005 µM): 0.765
- relative viability (NCI-H1355; first compound 0.01581 µM): 0.796
- relative viability (NCI-H1355; first compound 0.05 µM): 0.753
- relative viability (NCI-H1355; first compound 0.1581 µM): 0.699
- relative viability (NCI-H1355; first compound 0.5 µM): 0.729
- relative viability (NCI-H1651; first compound 0.005 µM): 0.37
- relative viability (NCI-H1651; first compound 0.01581 µM): 0.41
- relative viability (NCI-H1651; first compound 0.05 µM): 0.308
- relative viability (NCI-H1651; first compound 0.1581 µM): 0.455
- relative viability (NCI-H1651; first compound 0.5 µM): 0.456
- relative viability (NCI-H1915; first compound 0.005 µM): 0.323
- relative viability (NCI-H1915; first compound 0.01581 µM): 0.333
- relative viability (NCI-H1915; first compound 0.05 µM): 0.335
- relative viability (NCI-H1915; first compound 0.1581 µM): 0.309
- relative viability (NCI-H1915; first compound 0.5 µM): 0.354
- relative viability (NCI-H1993; first compound 0.005 µM): 0.674
- relative viability (NCI-H1993; first compound 0.01581 µM): 0.689
- relative viability (NCI-H1993; first compound 0.05 µM): 0.467
- relative viability (NCI-H1993; first compound 0.1581 µM): 0.625
- relative viability (NCI-H1993; first compound 0.5 µM): 0.643
- relative viability (NCI-H2023; first compound 0.005 µM): 0.488
- relative viability (NCI-H2023; first compound 0.01581 µM): 0.594
- relative viability (NCI-H2023; first compound 0.05 µM): 0.621
- relative viability (NCI-H2023; first compound 0.1581 µM): 0.648
- relative viability (NCI-H2023; first compound 0.5 µM): 0.561
- relative viability (NCI-H2085; first compound 0.005 µM): 0.234
- relative viability (NCI-H2085; first compound 0.01581 µM): 0.234
- relative viability (NCI-H2085; first compound 0.05 µM): 0.199
- relative viability (NCI-H2085; first compound 0.1581 µM): 0.228
- relative viability (NCI-H2085; first compound 0.5 µM): 0.315
- relative viability (NCI-H2126; first compound 0.005 µM): 0.601
- relative viability (NCI-H2126; first compound 0.01581 µM): 0.709
- relative viability (NCI-H2126; first compound 0.05 µM): 0.644
- relative viability (NCI-H2126; first compound 0.1581 µM): 0.509
- relative viability (NCI-H2126; first compound 0.5 µM): 0.569
- relative viability (NCI-H2342; first compound 0.005 µM): 0.32
- relative viability (NCI-H2342; first compound 0.01581 µM): 0.309
- relative viability (NCI-H2342; first compound 0.05 µM): 0.27
- relative viability (NCI-H2342; first compound 0.1581 µM): 0.278
- relative viability (NCI-H2342; first compound 0.5 µM): 0.31
- relative viability (NCI-H2347; first compound 0.005 µM): 0.328
- relative viability (NCI-H2347; first compound 0.01581 µM): 1
- relative viability (NCI-H2347; first compound 0.1581 µM): 0.262
- relative viability (NCI-H2347; first compound 0.5 µM): 0.188
- relative viability (NCI-H358; first compound 0.005 µM): 0.188
- relative viability (NCI-H358; first compound 0.01581 µM): 0.219
- relative viability (NCI-H358; first compound 0.05 µM): 0.142
- relative viability (NCI-H358; first compound 0.1581 µM): 0.165
- relative viability (NCI-H358; first compound 0.5 µM): 0.199
- relative viability (NCI-H650; first compound 0.005 µM): 0.456
- relative viability (NCI-H650; first compound 0.01581 µM): 0.473
- relative viability (NCI-H650; first compound 0.05 µM): 0.463
- relative viability (NCI-H650; first compound 0.1581 µM): 0.477
- relative viability (NCI-H650; first compound 0.5 µM): 0.459
- relative viability (NCI-H838; first compound 0.005 µM): 0.267
- relative viability (NCI-H838; first compound 0.01581 µM): 0.334
- relative viability (NCI-H838; first compound 0.05 µM): 0.26
- relative viability (NCI-H838; first compound 0.1581 µM): 0.238
- relative viability (NCI-H838; first compound 0.5 µM): 0.36
- relative viability (PC-14; first compound 0.005 µM): 0.255
- relative viability (PC-14; first compound 0.01581 µM): 0.317
- relative viability (PC-14; first compound 0.05 µM): 0.228
- relative viability (PC-14; first compound 0.1581 µM): 0.284
- relative viability (PC-14; first compound 0.5 µM): 0.215
- relative viability (SW 1573; first compound 0.005 µM): 0.522
- relative viability (SW 1573; first compound 0.01581 µM): 0.699
- relative viability (SW 1573; first compound 0.05 µM): 0.637
- relative viability (SW 1573; first compound 0.1581 µM): 0.482
- relative viability (SW 1573; first compound 0.5 µM): 0.459
- relative viability (UMC-11; first compound 0.005 µM): 0.451
- relative viability (UMC-11; first compound 0.01581 µM): 0.464
- relative viability (UMC-11; first compound 0.05 µM): 0.502
- relative viability (UMC-11; first compound 0.1581 µM): 0.471
- relative viability (UMC-11; first compound 0.5 µM): 0.324

— the supplement of paper PMC10307832
